These compounds were tested against T1, P2X7 receptor (Homo sapiens, UniProt Q99572) (assay: High throughput P2X7 calcium mobilization assay (Example 4A)). Conditions: SH-SY5Y cells; 50% decrease in fluorescence response of cells exposed to 80 μM BzATP; Table I.
T1 construct: host or cells: SH-SY5Y
T1 sequence (Q99572 1-595): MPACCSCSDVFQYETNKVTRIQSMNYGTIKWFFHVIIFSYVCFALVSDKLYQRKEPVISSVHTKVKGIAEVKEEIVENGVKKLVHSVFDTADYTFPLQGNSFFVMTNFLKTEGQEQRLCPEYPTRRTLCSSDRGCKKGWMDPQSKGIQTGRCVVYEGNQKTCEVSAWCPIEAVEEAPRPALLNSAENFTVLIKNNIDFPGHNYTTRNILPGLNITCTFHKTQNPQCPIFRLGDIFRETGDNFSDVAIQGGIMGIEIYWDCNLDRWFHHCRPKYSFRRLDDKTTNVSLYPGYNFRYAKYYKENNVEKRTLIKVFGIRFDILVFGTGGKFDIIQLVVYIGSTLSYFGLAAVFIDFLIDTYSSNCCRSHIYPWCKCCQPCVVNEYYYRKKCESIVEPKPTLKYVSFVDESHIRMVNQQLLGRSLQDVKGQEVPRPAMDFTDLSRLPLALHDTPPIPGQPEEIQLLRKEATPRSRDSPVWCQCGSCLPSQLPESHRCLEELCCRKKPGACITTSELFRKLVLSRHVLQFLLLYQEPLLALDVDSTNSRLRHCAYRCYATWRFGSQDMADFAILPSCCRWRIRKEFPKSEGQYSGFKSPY
Type: cell-based
How it was run: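 SH-SY5Y cells loaded with 2.3 μM Fluo-4 AM for 1 h at 37 °C, then preincubated 1 h at room temperature with test compound (final 1–2500 nM) in low-sodium sucrose buffer, pH 7.4. Antagonism measured against 80 μM BzATP (about EC50) as peak FLIPR calcium fluorescence over 2 min, corrected by no-agonist background.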

IC50 [µM] | SMILES
≤ 2 | CCc1nc(-c2ncccn2)sc1C(=O)NCC1(c2cccnc2)CCCCC1 [Compound 219, 4-ethyl-N-[(1-pyridin-3-ylcyclohexyl)methyl]-2-pyrimidin-2-yl-1,3-thiazole-5-carboxamide]
≤ 2 | CCc1nc(-c2ncccn2)sc1C(=O)NCC(CC(C)C)c1ccc(C(F)(F)F)cc1 (stereo not drawn) [Compound 220, 4-ethyl-N-{4-methyl-2-[4-(trifluoromethyl)phenyl]pentyl}-2-pyrimidin-2-yl-1,3-thiazole-5-carboxamide]
≤ 2 | CCc1nc(-c2ncccn2)sc1C(=O)NCc1ccc(F)cc1Cl [Compound 231, N-(2-chloro-4-fluorobenzyl)-4-ethyl-2-pyrimidin-2-yl-1,3-thiazole-5-carboxamide]
≤ 2 | CCc1nc(-c2ncccn2)sc1C(=O)NC1CC(C)CC(C)(C)C1 (stereo not drawn) [Compound 236, 4-ethyl-2-pyrimidin-2-yl-N-(3,3,5-trimethylcyclohexyl)-1,3-thiazole-5-carboxamide]
≤ 2 | CCc1nc(-c2ncccn2)sc1C(=O)NCC12CC3CC(CC(C3)C1)C2 [Compound 247, N-(adamantan-1-ylmethyl)-4-ethyl-2-pyrimidin-2-yl-1,3-thiazole-5-carboxamide]
≤ 2 | CCc1nc(-c2ncccn2)sc1C(=O)NC[C@@H]1CCC2CC1C2(C)C (stereo partly drawn) [Compound 248, N-{[(2R)-6,6-dimethylbicyclo[3.1.1]hept-2-yl]methyl}-4-ethyl-2-pyrimidin-2-yl-1,3-thiazole-5-carboxamide]
≤ 2 | CCc1nc(-c2ncccn2)sc1C(=O)NCC(CC(C)C)c1ccc(Cl)cc1 (stereo not drawn) [Compound 249, N-[2-(4-chlorophenyl)-4-methylpentyl]-4-ethyl-2-pyrimidin-2-yl-1,3-thiazole-5-carboxamide]
≤ 2 | CCc1nc(-c2ncccn2)sc1C(=O)NCC1(c2ccc(OC)cc2)CCCCC1 [Compound 250, 4-ethyl-N-{[1-(4-methoxyphenyl)cyclohexyl]methyl)-2-pyrimidin-2-yl-1,3-thiazole-5-carboxamide]
≤ 2 | CCc1nc(-c2ncccn2)sc1C(=O)NCC(CC(C)C)c1ccccc1 (stereo not drawn) [Compound 258, 4-ethyl-N-(4-methyl-2-phenylpentyl)-2-pyrimidin-2-yl-1,3-thiazole-5-carboxamide]
≤ 2 | CCc1nc(-c2ncccn2)sc1C(=O)NCC1(c2ccc(OC)cc2)CCCC1 [Compound 269, 4-ethyl-N-{[1-(4-methoxyphenyl)cyclopentyl]methyl}-2-pyrimidin-2-yl-1,3-thiazole-5-carboxamide]
≤ 2 | CCc1nc(-c2ncccn2)sc1C(=O)NCC(CC(C)C)c1ccc(C)cc1 (stereo not drawn) [Compound 275, 4-ethyl-N-[4-methyl-2-(4-methylphenyl)pentyl]-2-pyrimidin-2-yl-1,3-thiazole-5-carboxamide]
≤ 2 | CCc1nc(-c2ncccn2)sc1C(=O)NCC1(c2ccc(Cl)cc2)CCCCC1 [Compound 276, N-{[1-(4-chlorophenyl)cyclohexyl]methyl}-4-ethyl-2-pyrimidin-2-yl-1,3-thiazole-5-carboxamide]
≤ 2 | CCCC(CNC(=O)c1sc(-c2ncccn2)nc1CC)c1ccc(Cl)cc1 (stereo not drawn) [Compound 277, N-[2-(4-chlorophenyl)pentyl]-4-ethyl-2-pyrimidin-2-yl-1,3-thiazole-5-carboxamide]
≤ 2 | CCc1nc(-c2ncccn2)sc1C(=O)NCC1(c2ccc(Cl)nc2)CCCC1 [Compound 288, N-{[1-(6-chloropyridin-3-yl)cyclopentyl]methyl}-4-ethyl-2-pyrimidin-2-yl-1,3-thiazole-5-carboxamide]
≤ 2 | Cc1nc(-c2ncccn2)sc1C(=O)NCC1(c2cccnc2)CCCCC1 [Compound 289, 4-methyl-N-[(1-pyridin-3-ylcyclohexyl)methyl]-2-pyrimidin-2-yl-1,3-thiazole-5-carboxamide]
≤ 2 | CCc1nc(-c2ncccn2)sc1C(=O)NCC1(c2ccc(Cl)nc2)CCCCC1 [Compound 298, N-{[1-(6-chloropyridin-3-yl)cyclohexyl]methyl}-4-ethyl-2-pyrimidin-2-yl-1,3-thiazole-5-carboxamide]
≤ 2 | CCc1nc(-c2ncccn2)sc1C(=O)NCC(CC(C)C)c1ccc(Cl)nc1 (stereo not drawn) [Compound 299, N-[2-(6-chloropyridin-3-yl)-4-methylpentyl]-4-ethyl-2-pyrimidin-2-yl-1,3-thiazole-5-carboxamide]

Second part, the compound before the results:

SMILES | IC50 [µM]
O=C(NCCc1ccccc1Br)c1cn(-c2ncccn2)nc1C(F)(F)F [Compound 218, N-[2-(2-bromophenyl)ethyl]-1-pyrimidin-2-yl-3-(trifluoromethyl)-1H-pyrazole-4-carboxamide] | ≤ 2
COc1ccc(C2(CNC(=O)c3sc(-c4ncccn4)nc3C(F)(F)F)CCCC2)cc1 [Compound 285, N-{[1-(4-methoxyphenyl)cyclopentyl]methyl}-2-pyrimidin-2-yl-4-(trifluoromethyl)-1,3-thiazole-5-carboxamide] | ≤ 2
O=C(NCC(c1ccc(Cl)cc1)N1CCCC1)c1sc(-c2ncccn2)nc1C(F)(F)F (stereo not drawn) [Compound 286, N-[2-(4-chlorophenyl)-2-pyrrolidin-1-ylethyl]-2-pyrimidin-2-yl-4-(trifluoromethyl)-1,3-thiazole-5-carboxamide] | ≤ 2
O=C(NCC1(c2ccc(Cl)nc2)CCCC1)c1sc(-c2ncccn2)nc1C(F)(F)F [Compound 287, N-{[1-(6-chloropyridin-3-yl)cyclopentyl]methyl}-2-pyrimidin-2-yl-4-(trifluoromethyl)-1,3-thiazole-5-carboxamide] | ≤ 2
Cc1nc(-c2ncccn2)sc1C(=O)NCC(CC(C)C)c1ccc(C(F)(F)F)cc1 (stereo not drawn) [Compound 290, 4-methyl-N-{4-methyl-2-[4-(trifluoromethyl)phenyl]pentyl}-2-pyrimidin-2-yl-1,3-thiazole-5-carboxamide] | ≤ 2
O=C(NCC1(c2ccc(Cl)nc2)CCCCC1)c1sc(-c2ncccn2)nc1C(F)(F)F [Compound 291, N-{[1-(6-chloropyridin-3-yl)cyclohexyl]methyl}-2-pyrimidin-2-yl-4-(trifluoromethyl)-1,3-thiazole-5-carboxamide] | ≤ 2
CC(C)CC(CNC(=O)c1sc(-c2ncccn2)nc1C(F)(F)F)c1ccc(Cl)nc1 (stereo not drawn) [Compound 292, N-[2-(6-chloropyridin-3-yl)-4-methylpentyl]-2-pyrimidin-2-yl-4-(trifluoromethyl)-1,3-thiazole-5-carboxamide] | ≤ 2
O=C(NCC1(c2cccnc2)CCCCC1)c1sc(-n2ccccc2=O)nc1C(F)(F)F [Compound 293, 2-(2-oxopyridin-1(2H)-yl)-N-[(1-pyridin-3-ylcyclohexyl)methyl]-4-(trifluoromethyl)-1,3-thiazole-5-carboxamide] | ≤ 2
O=C(NCC1(c2cccnc2)CCCCC1)c1sc(N2CCOCC2)nc1C(F)(F)F [Compound 294, 2-morpholin-4-yl-N-[(1-pyridin-3-ylcyclohexyl)methyl]-4-(trifluoromethyl)-1,3-thiazole-5-carboxamide] | ≤ 2
O=C(NCC1(c2cccnc2)CCCCC1)c1sc(N2CCC(O)CC2)nc1C(F)(F)F [Compound 295, 2-(4-hydroxypiperidin-1-yl)-N-[(1-pyridin-3-ylcyclohexyl)methyl]-4-(trifluoromethyl)-1,3-thiazole-5-carboxamide] | ≤ 2
O=C(NCC1(N2CCCCC2)CCCCC1)c1sc(-c2ncccn2)nc1C(F)(F)F [Compound 296, N-[(1-piperidin-1-ylcyclohexyl)methyl]-2-pyrimidin-2-yl-4-(trifluoromethyl)-1,3-thiazole-5-carboxamide] | ≤ 2
CC(C)n1cc(C2(CNC(=O)c3sc(-c4ncccn4)nc3C(F)(F)F)CCCCC2)cn1 [Compound 297, N-{[1-(1-isopropyl-1H-pyrazol-4-yl)cyclohexyl]methyl}-2-pyrimidin-2-yl-4-(trifluoromethyl)-1,3-thiazole-5-carboxamide] | ≤ 2
O=C(NCC1(c2cccnc2)CCCCC1)c1sc(N2CCNCC2)nc1C(F)(F)F [Compound 300, 2-piperazin-1-yl-N-[(1-pyridin-3-ylcyclohexyl)methyl]-4-(trifluoromethyl)-1,3-thiazole-5-carboxamide] | ≤ 2
CC(C)(C)OC(=O)NC1CCN(c2nc(C(F)(F)F)c(C(=O)NCC3(c4cccnc4)CCCCC3)s2)CC1 [Compound 301, tert-butyl {1-[5-{[(1-pyridin-3-ylcyclohexyl)methyl]carbamoyl}-4-(trifluoromethyl)-1,3-thiazol-2-yl]piperidin-4-yl}carbamate] | ≤ 2
O=C(NCC1(c2cccnc2)CCCCC1)c1sc(N2CCC(N3CCCC3)CC2)nc1C(F)(F)F [Compound 302, N-[(1-pyridin-3-ylcyclohexyl)methyl]-2-(4-pyrrolidin-1-ylpiperidin-1-yl)-4-(trifluoromethyl)-1,3-thiazole-5-carboxamide] | ≤ 2
NC1CCN(c2nc(C(F)(F)F)c(C(=O)NCC3(c4cccnc4)CCCCC3)s2)CC1 [Compound 303, 2-(4-aminopiperidin-1-yl)-N-[(1-pyridin-3-ylcyclohexyl)methyl]-4-(trifluoromethyl)-1,3-thiazole-5-carboxamide] | ≤ 2

From patent US9133204B2, “5-membered heterocyclic amides and related compounds” (H. Lundbeck A/S, priority 2007, dated 2015)
